The results in this text go back to ChEMBL document CHEMBL1154202, “Arylcarboxyamino-substituted diaryl ureas as potent and selective FLT3 inhibitors” (Bioorg Med Chem Lett, 2009).

Series [1] has as its target T1, Receptor-type tyrosine-protein kinase FLT3 (Homo sapiens, UniProt P36888).
T1 sequence (P36888 whole entry): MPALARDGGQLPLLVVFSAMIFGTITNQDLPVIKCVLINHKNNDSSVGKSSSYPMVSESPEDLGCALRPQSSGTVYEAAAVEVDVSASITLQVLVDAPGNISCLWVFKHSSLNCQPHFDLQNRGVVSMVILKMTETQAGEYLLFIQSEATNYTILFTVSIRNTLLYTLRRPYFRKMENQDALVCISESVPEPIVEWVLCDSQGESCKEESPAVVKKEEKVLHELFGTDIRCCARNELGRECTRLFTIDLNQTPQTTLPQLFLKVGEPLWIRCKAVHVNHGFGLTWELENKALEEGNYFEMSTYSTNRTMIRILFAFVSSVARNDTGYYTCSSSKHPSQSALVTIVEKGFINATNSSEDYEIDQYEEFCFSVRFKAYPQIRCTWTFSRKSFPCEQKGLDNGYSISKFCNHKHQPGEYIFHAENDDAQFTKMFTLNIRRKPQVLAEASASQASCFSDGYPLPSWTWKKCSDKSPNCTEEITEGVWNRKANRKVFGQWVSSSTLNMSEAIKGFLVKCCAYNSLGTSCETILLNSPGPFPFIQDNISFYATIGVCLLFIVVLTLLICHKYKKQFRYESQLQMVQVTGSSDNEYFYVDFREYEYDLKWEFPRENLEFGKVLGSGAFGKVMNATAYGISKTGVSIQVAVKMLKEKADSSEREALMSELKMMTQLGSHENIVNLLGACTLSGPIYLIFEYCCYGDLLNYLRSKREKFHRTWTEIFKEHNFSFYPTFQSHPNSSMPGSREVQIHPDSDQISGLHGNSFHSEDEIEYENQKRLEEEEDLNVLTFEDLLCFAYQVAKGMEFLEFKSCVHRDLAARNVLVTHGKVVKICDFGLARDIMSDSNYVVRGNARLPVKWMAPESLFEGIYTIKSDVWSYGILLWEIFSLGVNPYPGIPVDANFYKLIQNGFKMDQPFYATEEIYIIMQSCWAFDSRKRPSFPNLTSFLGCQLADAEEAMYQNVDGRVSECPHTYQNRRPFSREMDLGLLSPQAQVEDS

The test system of series [2] is MV4-11. Nature of the series: Antitumor activity against human MV411 cells assessed as inhibition of cell proliferation. Format: functional, cell-based.
In series [3] the test system is MV4-11. Nature of the series: Antitumor activity against human MV411 cells in xenografted athymic nude mouse model assessed as decrease in tumor size at 10 mg/kg, po qd for 28 days measured after 29 to 36 days. Format: functional.
For series [4], the system named is MV4-11. Put plainly: Antitumor activity against human MV411 cells in xenografted athymic nude mouse model assessed as decrease in tumor size at 30 mg/kg, po qd for 28 days. Format: functional, organism-based. On the set-up: dose 30 mg/kg.
Series [5] can be described thus: Cmax in nude mouse at 10 mg/kg, po. The note with it: in vivo. The class given is ADME, organism-based. On the set-up: dose 10 mg/kg, route oral.
Series [6] addresses Vascular endothelial growth factor receptor 2 (Homo sapiens, UniProt P35968). Nature of the series: Binding affinity to VEGFR2.
The nature of series [7]: Half life in nude mouse at 10 mg/kg, po. On the set-up: dose 10 mg/kg, route oral. Format: ADME, organism-based. The note with it: in vivo.
The target in series [8] is Macrophage colony-stimulating factor 1 receptor (Homo sapiens, UniProt P07333). Nature of the series: Binding affinity to CSF1R.
In series [9] the target is Platelet-derived growth factor receptor beta (Homo sapiens, UniProt P09619). Nature of the series: Binding affinity to PDGFRbeta.
Sequence of Platelet-derived growth factor receptor beta (P09619 whole entry): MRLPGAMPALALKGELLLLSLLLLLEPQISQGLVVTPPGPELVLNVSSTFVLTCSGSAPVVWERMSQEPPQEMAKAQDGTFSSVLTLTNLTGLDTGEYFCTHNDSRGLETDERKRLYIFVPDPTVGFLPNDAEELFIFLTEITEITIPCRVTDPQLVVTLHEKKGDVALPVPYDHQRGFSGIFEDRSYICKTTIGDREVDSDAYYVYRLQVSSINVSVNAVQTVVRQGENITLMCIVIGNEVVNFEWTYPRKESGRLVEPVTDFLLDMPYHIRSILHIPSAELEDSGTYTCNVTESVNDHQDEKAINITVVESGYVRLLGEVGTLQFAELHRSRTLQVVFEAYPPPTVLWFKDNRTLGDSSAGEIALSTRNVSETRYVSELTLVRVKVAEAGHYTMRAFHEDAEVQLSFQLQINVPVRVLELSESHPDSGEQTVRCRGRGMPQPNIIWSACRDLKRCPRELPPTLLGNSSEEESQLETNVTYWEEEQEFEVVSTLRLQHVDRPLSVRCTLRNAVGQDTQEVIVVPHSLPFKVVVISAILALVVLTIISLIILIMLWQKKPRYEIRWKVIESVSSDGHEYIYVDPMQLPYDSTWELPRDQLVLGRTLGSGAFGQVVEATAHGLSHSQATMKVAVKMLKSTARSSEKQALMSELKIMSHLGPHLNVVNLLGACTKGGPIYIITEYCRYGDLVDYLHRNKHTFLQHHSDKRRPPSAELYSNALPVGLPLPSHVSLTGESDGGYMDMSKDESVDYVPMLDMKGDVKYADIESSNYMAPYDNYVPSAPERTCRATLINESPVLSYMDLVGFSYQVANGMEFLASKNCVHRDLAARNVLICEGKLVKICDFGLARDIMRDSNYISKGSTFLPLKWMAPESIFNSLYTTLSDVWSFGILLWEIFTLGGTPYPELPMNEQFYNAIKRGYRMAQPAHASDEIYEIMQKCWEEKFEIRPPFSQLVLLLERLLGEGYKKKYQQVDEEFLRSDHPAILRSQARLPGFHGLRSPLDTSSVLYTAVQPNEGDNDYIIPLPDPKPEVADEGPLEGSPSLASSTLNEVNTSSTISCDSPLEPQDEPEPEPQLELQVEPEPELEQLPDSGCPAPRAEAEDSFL
In series [10] the test system is MV4-11. Put plainly: Antitumor activity against human MV411 cells in xenografted athymic nude mouse model assessed as decrease in tumor size at 10 mg/kg, po qd for 28 days. The class given is functional, organism-based. On the set-up: dose 10 mg/kg. (A xenograft is tissue or cells of one species grown in another, often human tumour cells in immunodeficient mice.)

Series [11] concerns the target Proto-oncogene tyrosine-protein kinase receptor Ret (Homo sapiens, UniProt P07949). Nature of the series: Binding affinity to RET.
The subject of series [12] is Mus musculus. Nature of the series: AUC in nude mouse at 10 mg/kg, po. Format: ADME, organism-based, Plasma. The arrangement: dose 10 mg/kg, route oral. The note with it: in vivo.
For series [13], the system named is Mus musculus. Put plainly: Toxicity in human MV411 cells in xenografted athymic nude mouse model assessed as change in body weight at 10 mg/kg, po qd for 28 days. Format: organism-based, MV4-11. On the set-up: dose 10 mg/kg, route oral. The note with it: in vivo, 672 h.
Series [14] has as its target Mast/stem cell growth factor receptor Kit (Homo sapiens, UniProt P10721). Put plainly: Binding affinity to KIT.
Series [15] deals with MV4-11. Put plainly: Antitumor activity against human MV411 cells in xenografted athymic nude mouse model assessed as decrease in tumor size at 10 mg/kg, po qd for 28 days measured after 36 to 56 days. The class given is functional, organism-based. The arrangement: dose 10 mg/kg.

SMILES strings stand for the structures. Calls of active or inactive are those of the source. No cut-off for these calls is given here.

Sequence of Proto-oncogene tyrosine-protein kinase receptor Ret (P07949 whole entry): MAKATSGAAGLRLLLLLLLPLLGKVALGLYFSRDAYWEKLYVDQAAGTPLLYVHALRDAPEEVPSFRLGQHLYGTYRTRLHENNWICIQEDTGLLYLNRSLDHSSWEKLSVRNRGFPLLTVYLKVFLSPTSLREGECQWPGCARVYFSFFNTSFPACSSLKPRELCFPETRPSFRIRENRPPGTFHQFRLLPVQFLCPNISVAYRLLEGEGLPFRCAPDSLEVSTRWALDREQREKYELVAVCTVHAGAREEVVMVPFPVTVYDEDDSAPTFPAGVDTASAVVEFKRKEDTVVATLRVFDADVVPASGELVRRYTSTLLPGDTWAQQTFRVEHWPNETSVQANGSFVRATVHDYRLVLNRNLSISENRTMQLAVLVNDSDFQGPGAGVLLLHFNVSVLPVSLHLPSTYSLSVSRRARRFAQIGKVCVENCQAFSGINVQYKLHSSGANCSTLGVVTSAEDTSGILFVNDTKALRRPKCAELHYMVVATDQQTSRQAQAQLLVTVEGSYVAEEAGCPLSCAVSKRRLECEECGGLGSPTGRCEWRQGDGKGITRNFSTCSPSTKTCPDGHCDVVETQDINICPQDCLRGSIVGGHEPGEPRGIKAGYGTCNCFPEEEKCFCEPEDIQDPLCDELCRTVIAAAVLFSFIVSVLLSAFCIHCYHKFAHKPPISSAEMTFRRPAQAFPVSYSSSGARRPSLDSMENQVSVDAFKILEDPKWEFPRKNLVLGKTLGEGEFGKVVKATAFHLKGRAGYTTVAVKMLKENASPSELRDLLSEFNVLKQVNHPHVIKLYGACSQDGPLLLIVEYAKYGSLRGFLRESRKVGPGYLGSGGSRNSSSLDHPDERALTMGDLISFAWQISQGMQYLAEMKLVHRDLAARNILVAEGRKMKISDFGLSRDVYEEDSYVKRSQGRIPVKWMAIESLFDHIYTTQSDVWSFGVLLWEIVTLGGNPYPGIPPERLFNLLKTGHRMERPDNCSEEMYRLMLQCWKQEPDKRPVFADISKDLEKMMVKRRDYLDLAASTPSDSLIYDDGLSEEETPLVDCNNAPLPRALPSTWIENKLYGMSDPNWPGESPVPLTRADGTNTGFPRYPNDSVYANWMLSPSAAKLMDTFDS
Sequence of Mast/stem cell growth factor receptor Kit (P10721 whole entry): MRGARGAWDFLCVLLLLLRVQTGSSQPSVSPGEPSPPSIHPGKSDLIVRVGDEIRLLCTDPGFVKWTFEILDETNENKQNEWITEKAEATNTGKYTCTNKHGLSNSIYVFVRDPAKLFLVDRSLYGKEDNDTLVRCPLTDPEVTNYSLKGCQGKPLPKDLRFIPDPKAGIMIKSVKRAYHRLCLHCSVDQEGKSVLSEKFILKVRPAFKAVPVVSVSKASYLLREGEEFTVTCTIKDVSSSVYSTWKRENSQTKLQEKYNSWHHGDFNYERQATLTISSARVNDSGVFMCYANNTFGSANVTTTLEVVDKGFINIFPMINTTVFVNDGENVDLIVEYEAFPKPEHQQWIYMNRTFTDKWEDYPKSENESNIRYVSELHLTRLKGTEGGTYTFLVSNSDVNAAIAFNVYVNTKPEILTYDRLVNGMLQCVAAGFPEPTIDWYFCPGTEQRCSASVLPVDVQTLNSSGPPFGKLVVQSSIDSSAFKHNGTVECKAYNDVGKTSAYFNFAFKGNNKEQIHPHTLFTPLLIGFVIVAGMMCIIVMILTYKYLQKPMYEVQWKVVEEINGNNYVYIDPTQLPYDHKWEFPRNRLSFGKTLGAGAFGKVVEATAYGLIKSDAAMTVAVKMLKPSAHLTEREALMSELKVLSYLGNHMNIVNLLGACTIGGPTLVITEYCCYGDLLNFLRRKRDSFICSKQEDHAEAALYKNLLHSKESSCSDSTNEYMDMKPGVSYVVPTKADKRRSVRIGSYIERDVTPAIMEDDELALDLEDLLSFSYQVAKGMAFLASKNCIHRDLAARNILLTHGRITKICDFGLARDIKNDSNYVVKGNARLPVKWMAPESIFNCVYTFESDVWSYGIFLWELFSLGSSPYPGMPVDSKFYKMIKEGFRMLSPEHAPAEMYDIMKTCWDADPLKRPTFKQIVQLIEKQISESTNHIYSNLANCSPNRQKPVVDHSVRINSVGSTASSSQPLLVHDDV
Sequence of Vascular endothelial growth factor receptor 2 (P35968 whole entry): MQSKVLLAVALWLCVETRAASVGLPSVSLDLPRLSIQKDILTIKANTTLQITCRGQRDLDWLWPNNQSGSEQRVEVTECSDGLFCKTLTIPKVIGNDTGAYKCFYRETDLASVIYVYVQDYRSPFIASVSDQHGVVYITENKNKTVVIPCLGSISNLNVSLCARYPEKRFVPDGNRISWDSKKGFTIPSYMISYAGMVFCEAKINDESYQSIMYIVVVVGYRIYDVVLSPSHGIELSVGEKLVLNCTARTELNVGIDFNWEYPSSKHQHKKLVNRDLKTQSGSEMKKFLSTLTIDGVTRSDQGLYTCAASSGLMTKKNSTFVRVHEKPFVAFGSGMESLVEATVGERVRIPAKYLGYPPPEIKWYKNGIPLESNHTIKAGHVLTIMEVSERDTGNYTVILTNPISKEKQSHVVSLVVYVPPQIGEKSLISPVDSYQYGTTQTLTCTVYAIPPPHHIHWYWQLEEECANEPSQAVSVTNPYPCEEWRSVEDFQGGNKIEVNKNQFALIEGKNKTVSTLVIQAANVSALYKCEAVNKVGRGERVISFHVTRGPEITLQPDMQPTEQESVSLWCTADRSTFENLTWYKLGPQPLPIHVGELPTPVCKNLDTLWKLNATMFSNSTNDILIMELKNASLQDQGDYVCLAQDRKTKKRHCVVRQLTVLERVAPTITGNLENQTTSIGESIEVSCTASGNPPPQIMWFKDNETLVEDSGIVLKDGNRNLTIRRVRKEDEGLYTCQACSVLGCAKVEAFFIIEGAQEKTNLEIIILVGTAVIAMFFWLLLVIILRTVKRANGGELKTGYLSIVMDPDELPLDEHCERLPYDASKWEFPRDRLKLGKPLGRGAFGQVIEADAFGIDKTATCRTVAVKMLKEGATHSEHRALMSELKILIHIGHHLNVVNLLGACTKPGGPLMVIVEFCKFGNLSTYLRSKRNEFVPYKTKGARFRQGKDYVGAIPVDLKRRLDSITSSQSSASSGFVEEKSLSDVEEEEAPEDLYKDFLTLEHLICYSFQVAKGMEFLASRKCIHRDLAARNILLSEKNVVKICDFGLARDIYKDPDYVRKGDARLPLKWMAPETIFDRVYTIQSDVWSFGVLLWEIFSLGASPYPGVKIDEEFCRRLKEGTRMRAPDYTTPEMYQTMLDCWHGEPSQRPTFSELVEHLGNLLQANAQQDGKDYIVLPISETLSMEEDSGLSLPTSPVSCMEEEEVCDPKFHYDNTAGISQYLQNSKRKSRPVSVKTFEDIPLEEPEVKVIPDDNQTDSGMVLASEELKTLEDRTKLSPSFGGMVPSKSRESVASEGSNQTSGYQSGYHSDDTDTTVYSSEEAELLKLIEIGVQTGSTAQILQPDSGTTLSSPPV

Turning to `CC(C)(C)c1cc(NC(=O)Nc2ccc(C(=O)Nc3ccccn3)cc2)no1`, the Kd – broadly, the equilibrium constant for the complex coming apart – in series [1] came to 8.15 nM. Moreover, in the series with MV4-11 [2], the IC50 (usually the midpoint of a concentration-inhibition curve) is 104 nM.
As for `CCN(CC)CCNC(=O)c1c(C)[nH]c(/C=C2\C(=O)Nc3ccc(F)cc32)c1C`, the outcome in the series with MV4-11 [3] and in the series with MV4-11 [4] was Active.
Turning to `CC(C)(C)c1cc(NC(=O)Nc2ccc(NC(=O)Cc3ccccc3)cc2)no1`, the dissociation constant (Kd) in [1] worked out at 510 nM. The IC50 with MV4-11 [2] was 1090 nM.
For `CC(C)(C)c1cc(NC(=O)Nc2ccc(C(=O)Nc3ccccc3)cc2)no1`, in series [1], binding was characterised by a dissociation constant (Kd) of 7.4 nM. For the same molecule, in the series on MV4-11 [2], the IC50 turned out to be 101 nM.
Consider `CC(C)(C)c1cc(NC(=O)Nc2ccc(NC(=O)c3cn4c(n3)sc3ccccc34)cc2)no1`, for which the Cmax (in general, the highest concentration seen after dosing) in [5] worked out at 2360 nM. The Kd is greater than 200 nM in series [6]; 10 nM in [8]; 2.2 nM in [9]; 3 nM in series [11]; 1.6 nM in series [1]; 7.5 nM in series [14]. Moreover, in [7], the half-life (commonly the time in which the quantity being followed falls by half) is 2.3 h. Besides, the Activity in the series with MV4-11 [3] is recorded as 90 mm3; in the series on Mus musculus [13] it was less than 5%. The result with MV4-11 [10] was Active. Also, in the series with MV4-11 [2], the IC50 was 0.44 nM. In the series with Mus musculus [12], the AUC (as a rule, concentration integrated over time) worked out at 13.2 µM·h. In the series on MV4-11 [15], the outcome was inactive.
On to `CC(C)(C)c1cc(NC(=O)Nc2ccc(NC(=O)c3ccccn3)cc2)no1`, for which, in series [1], the Kd is 0.76 nM. Also, the IC50 with MV4-11 [2] amounted to 1.6 nM.
For `CC(C)(C)c1cc(NC(=O)Nc2ccc(NC(=O)c3cccc(O)n3)cc2)no1` the same measures were 2.5 nM and 46.7 nM.
Take `Cc1ccc2sc(C(=O)Nc3ccc(NC(=O)Nc4cc(C(C)(C)C)on4)cc3)cc2c1`: the Kd in [1] is 0.77 nM. Moreover, the IC50 with MV4-11 [2] was determined as 0.85 nM.
`CC(C)(C)c1cc(NC(=O)Nc2ccc(NC(=O)c3ccc4ccccc4c3)cc2)no1`: the Kd in series [1] was 0.75 nM. Further, the IC50 in the series with MV4-11 [2] amounted to 3.1 nM.
The molecule `CC(C)(C)c1cc(NC(=O)Nc2ccc(NC(=O)c3cccnc3)cc2)no1` returned a Kd in series [1] of 15 nM. Further, in the series with MV4-11 [2], the half-inhibitory concentration (IC50) worked out at 159 nM.
The molecule `CC(C)(C)c1cc(NC(=O)Nc2ccc(NC(=O)c3cc4ccccc4cn3)cc2)no1` showed a Cmax in [5] of 1310 nM. The Kd was greater than 200 nM in series [6], 7 nM in [9], 7.3 nM in series [11] and 1.8 nM in series [14]. Moreover, in series [7], the half-life was 2.2 h. The figures for the Activity in the series with MV4-11 [3] and in the series with Mus musculus [13] were 90 mm3 and less than 5%, respectively. Besides, in the series on MV4-11 [2], the IC50 came out at 0.29 nM. Also, the area under the curve (AUC) in the series on Mus musculus [12] came out at 4.25 µM·h. The result in the series with MV4-11 [15] was inactive.
In [1], `CC(C)(C)c1cc(NC(=O)Nc2ccc(NC(=O)c3ccncc3)cc2)no1` came in with a Kd of 10.1 nM. In addition, in the series on MV4-11 [2], the IC50 was found to be 132 nM.
The matching figures for `CC(C)(C)c1cc(NC(=O)Nc2ccc(NC(=O)C3CCNCC3)cc2)no1`: 240 nM and 10500 nM.
Molecule `CC(C)(C)c1cc(NC(=O)Nc2ccc(C(=O)Nc3ccncc3)cc2)no1` yielded a dissociation constant Kd in [1] of 38.4 nM. Besides, the IC50 in the series with MV4-11 [2] was found to be 414 nM.
In the case of `CC(C)(C)c1cc(NC(=O)Nc2ccc(NC(=O)c3ncccc3O)cc2)no1`, the Kd came to 4.4 nM in [8]; 2.6 nM in series [9]; 4.7 nM in series [11]; 0.74 nM in series [1]; 0.96 nM in series [14]. Moreover, the IC50 with MV4-11 [2] was found to be 0.71 nM.
`CC(C)(C)c1cc(NC(=O)Nc2ccc(C(=O)Nc3cccnc3)cc2)no1`: binding in series [1] was characterised by a dissociation constant (Kd) of 25 nM. Further, the IC50 with MV4-11 [2] is 199 nM.
For `CC(C)(C)c1cc(NC(=O)Nc2ccc(NC(=O)c3ccccc3)cc2)no1` the same measures were 0.98 nM and 30 nM.
As for `CC(C)(C)c1cc(NC(=O)Nc2ccc(NC(=O)c3nccc4ccccc34)cc2)no1`, the Kd in series [1] was 0.74 nM. Moreover, the IC50 in the series with MV4-11 [2] turned out to be 2.8 nM.
